{"source": "patent US5972953A", "about": "“Brain cell protective agent” (priority 1993, dated 1999)"}
{"test_system": "cultured nerve cells (cerebral cortex)", "assay": "cells", "assay_type": "cell-based, Wistar rat", "settings": "Rattus norvegicus, Cerebral cortex neuron, 24 h, read-out: ED50", "units": {"EC50": "nM"}}
{"smiles": "CC(C)CN(C(=O)/C=C/c1cccc(C(F)(F)F)c1)[C@@H]1CC[C@@]2(O)[C@H]3Cc4ccc(O)c5c4[C@@]2(CCN3CC2CC2)[C@H]1O5", "note": "[Compound 65, 17-cyclopropylmethyl-3,14β-dihydroxy-4,5α-epoxy-6β-(N-isobutyl-3-trifluoromethylcinnamamido)morphinan]", "EC50": 310}
{"smiles": "O=C(/C=C/c1cccc(C(F)(F)F)c1)N(CC1CCCCC1)[C@@H]1CC[C@@]2(O)[C@H]3Cc4ccc(O)c5c4[C@@]2(CCN3CC2CC2)[C@H]1O5", "note": "[Compound 68, 17-cyclopropylmethyl-3,14β-dihydroxy-4,5α-epoxy-6β-(N-cyclohexylmethyl-3-trifluoromethylcinnamamido)morphinan]", "EC50": 100}
{"test_system": "cultured nerve cells (cerebral cortex)", "assay": "cells", "assay_type": "cell-based, Wistar rat", "settings": "Rattus norvegicus, Cerebral cortex neuron; 10 mM glutamate, 24 hours at 37° C., LDH leakage; read-out: ED50 (the source's name)", "units": {"EC50": "nM"}}
{"smiles": "CC(C)CN(C(=O)CCCCC1CCCCC1)[C@@H]1CC[C@@]2(O)[C@H]3Cc4ccc(O)c5c4[C@@]2(CCN3CC2CC2)[C@H]1O5", "note": "[Compound 62, 17-cyclopropylmethyl-3,14β-dihydroxy-4,5α-epoxy-6β-(N-isobutyl-5-cyclohexylpentanoamido)morphinan]", "EC50": 140}
{"smiles": "CCN(C(=O)/C=C/c1cccc(C(F)(F)F)c1)[C@@H]1CC[C@@]2(O)[C@H]3Cc4ccc(O)c5c4[C@@]2(CCN3CC2CC2)[C@H]1O5", "note": "[Compound 63, 17-cyclopropylmethyl-3,14β-dihydroxy-4,5α-epoxy-6β-(N-ethyl-3-trifluoromethylcinnamarido)morphinan]", "EC50": 1250}
{"smiles": "CC(C)N(C(=O)/C=C/c1cccc(C(F)(F)F)c1)[C@@H]1CC[C@@]2(O)[C@H]3Cc4ccc(O)c5c4[C@@]2(CCN3CC2CC2)[C@H]1O5", "note": "[Compound 64, 17-cyclopropylmethyl-3,14β-dihydroxy-4,5α-epoxy-6β-(N-isopropyl-3-trifluoromethylcinnamamido)morphinan]", "EC50": 690}
{"smiles": "CCCCN(C(=O)/C=C/c1cccc(C(F)(F)F)c1)[C@@H]1CC[C@@]2(O)[C@H]3Cc4ccc(O)c5c4[C@@]2(CCN3CC2CC2)[C@H]1O5", "note": "[Compound 66, 17-cyclopropylmethyl-3,14β-dihydroxy-4,5α-epoxy-6β-(N-butyl-3-trifluoromethylcinnamamido)morphinan]", "EC50": 330}
{"smiles": "O=C(/C=C/c1cccc(C(F)(F)F)c1)N(CCc1ccccc1)[C@@H]1CC[C@@]2(O)[C@H]3Cc4ccc(O)c5c4[C@@]2(CCN3CC2CC2)[C@H]1O5", "note": "[Compound 67, 17-cyclopropylmethyl-3,14β-dihydroxy-4,5α-epoxy-6β-[N-(2-phenethyl)-3-trifluoromethylcinnamamido]morphinan]", "EC50": 100}
{"smiles": "O=C(/C=C/c1cccc(C(F)(F)F)c1)N(CCCc1ccccc1)[C@@H]1CC[C@@]2(O)[C@H]3Cc4ccc(O)c5c4[C@@]2(CCN3CC2CC2)[C@H]1O5", "note": "[Compound 69, 17-cyclopropylmethyl-3,14β-dihydroxy-4,5α-epoxy-6β-[N-(3-phenylpropyl)-3-trifluoromethylcinnamamido]-morphinan]", "EC50": 160}
{"smiles": "CCCCCN(C(=O)CCCCCc1ccccc1)[C@@H]1CC[C@@]2(O)[C@H]3Cc4ccc(O)c5c4[C@@]2(CCN3CC2CC2)[C@H]1O5", "note": "[Compound 70, 17-cyclopropylmethyl-3,14β-dihydroxy-4,5α-epoxy-6β-(N-pentyl-6-phenylhexanoamido)morphinan]", "EC50": 190}
{"smiles": "O=C(CCCCCc1ccccc1)N(CC1CCCCC1)[C@@H]1CC[C@@]2(O)[C@H]3Cc4ccc(O)c5c4[C@@]2(CCN3CC2CC2)[C@H]1O5", "note": "[Compound 71, 17-cyclopropylmethyl-3,14β-dihydroxy-4,5α-epoxy-6β-(N-cyclohexylmethyl-6-phenylhexanoamido)morphinan]", "EC50": 100}
{"smiles": "O=C(CCCCCc1ccccc1)N(CCCc1ccccc1)[C@@H]1CC[C@@]2(O)[C@H]3Cc4ccc(O)c5c4[C@@]2(CCN3CC2CC2)[C@H]1O5", "note": "[Compound 72, 17-cyclopropylmethyl-3,14β-dihydroxy-4,5α-epoxy-6β-[N-(3-phenylpropyl)-6-phenylhexanoamido)morphinan]", "EC50": 110}
